Assays:
[1] = test system: VH125.NOD mice; experiment: T1D disease progression in VH125.NOD mice on idelalisib chow; type: in vivo, mouse; conditions: female VH125.NOD mice, vs vehicle control chow
Text: Except where otherwise indicated, 6-16 week old mice were used in all experiments. Both male and female mice were used, but experiments were sex matched and both sexes gave identical results, with the exception of only female mice being used in the VH125.NOD experiments as female mice develop accelerated disease. hCD20-TamCre animals (Khalil, et al. Science 336: 1178-81) were intercrossed with mice carrying the rosa26-flox-STOP-YFP allele (Srinivas, et al., BMC Dev. Biol. 1:4), generating mice in which YFP is expressed in B cells upon Cre activation. These mice were crossed with Ars/A1 (Benschop, et al., Immunity 14: 33-43) transgenic mice to generate hCD20-TamCre×rosa26-flox-STOP-YFP×Ars/A1 mice. B cells from these mice will be referred to as WT Ars/A1. […]
Diet dose (DD) is calculated by multiplying the single daily dose (SD) by the body weight of a mouse (BW) and dividing that by the daily food intake (FI) [DD=(SD×BW)/FI]. […]
To test this possibility, immediately post-weaning, female VH125.NOD mice were placed on vehicle control chow to allow habituation to the diet. […] Disease progression was monitored based on blood glucose levels and visible signs of disease (i.e., hunching, scruffy fur, excessive urination).

[2] = test system: PTEN^−/+×SHIP-1^−/+ B cells; experiment: adoptive transfer of autoreactive PTEN-/+ x SHIP-1-/+ Ars/A1 B cells, loss of anergy; type: in vivo, mouse; conditions: for number of autoreactive ASCs/spleen: day 14
Text: Except where otherwise indicated, 6-16 week old mice were used in all experiments. Both male and female mice were used, but experiments were sex matched and both sexes gave identical results, with the exception of only female mice being used in the VH125.NOD experiments as female mice develop accelerated disease. hCD20-TamCre animals (Khalil, et al. Science 336: 1178-81) were intercrossed with mice carrying the rosa26-flox-STOP-YFP allele (Srinivas, et al., BMC Dev. Biol. 1:4), generating mice in which YFP is expressed in B cells upon Cre activation. These mice were crossed with Ars/A1 (Benschop, et al., Immunity 14: 33-43) transgenic mice to generate hCD20-TamCre×rosa26-flox-STOP-YFP×Ars/A1 mice. B cells from these mice will be referred to as WT Ars/A1. These mice were also crossed with SHIP-1^flox/flox mice (Karlsson, et al. J Exp Med 198: 333-40). hCD20-TamCre×rosa26-flox-STOP-YFP×Ars/A1 mice were also crossed to PTEN^flox/flox mice (Anzelon, et al., Nat Immunol 4: 287-94) and SHP-1^flox/flox mice to generate mice in which SHIP-1, PTEN and SHP-1 deletion can be induced in anergic B cells. hCD20-TamCre×rosa26-flox-STOP-YFP×PTEN^flox/flox×Ars/A1 were crossed to hCD20-TamCre×rosa26-flox-STOP-YFP×SHIP-1^flox/flox×Ars/A1 to generate hCD20-TamCre×rosa26-flox-STOP-YFPx PTEN^flox/wt×SHIP-1^flox/wt×Ars/A1 to allow for the double haploinsufficiency of both PTEN and SHIP-1 within B cells.
2 hours before adoptive transfer, C57BL/6 recipient mice received 200 rads irradiation. […] B cells from donor mice were isolated via depletion of CD43+ cells with anti-CD43-conjugated magnetic beads (MACS anti-mouse CD43; Miltenyi Biotec). Alternatively, CD4+ T cells were isolated via CD4 positive selection (MACS anti-mouse CD4 (L3T4) Miltenyi Biotec). Resultant populations were >97% pure based on flow cytometric analyses. Donor B cells were labeled with either CellTrace Violet (Molecular Probes) or CFSE (Molecular Probes) at 5 μM for 5 minutes at room temperature prior to transfer. Donor CD4 T cells were labeled with CFSE (Molecular Probes) at 5 μM for 5 minutes at room temperature prior to transfer. 1-2×10^6 donor cells in 200 μl PBS were adoptively transferred via IV injection. 24 hours post transfer, tamoxifen was administered to activate Cre. Tamoxifen (Sigma-Aldrich) was dissolved in 100% corn oil (Sigma-Aldrich) at 20 mg/ml. Recipient mice were injected IP with 100 μl (2 mg) on two consecutive days.
Diet dose (DD) is calculated by multiplying the single daily dose (SD) by the body weight of a mouse (BW) and dividing that by the daily food intake (FI) [DD=(SD×BW)/FI].
For VH125.NOD experiments animals are placed on control chow immediately after weaning.
Spleens were mechanically disrupted, single-cell suspensions were generated, and red blood cells were lysed with ammonium chloride TRIS. Cells were resuspended in PBS containing 1% FBS and incubated with indicated antibodies. For analysis of cell surface markers, antibodies against the following molecules were used: B220-PE (BioLegend), B220-BV786 (BD Biosciences), B220-BV510 (BioLegend), CD4-BV711 (BioLegend), CD8-BV421 (BioLegend), CD138-PECy7 (BioLegend), CD69-BV786 (BD Biosciences), CD86-PerCPCy5.5 (BioLegend). After cell surface staining, the cells were fixed and permeabilized with Cytofix/Cytoperm (BD) per manufacturer's instructions and stained with Dylight650-E4 anti-Ars/A1 idiotype (produced and conjugated in our laboratory) OR HEL-650 (produced and conjugated in our laboratory) and Alexa Fluor 488-anti-GFP (rabbit polyclonal; Life Technologies). Events were collected on a CyAn ADP (Dako) and subsequent analysis using FlowJo software (Tree Star).
For detection of IgM^a anti-Ars antibodies, microtiter plates were coated with 10 μg/ml Ars-BSA16 in PBS and blocked with 2 mg/ml BSA in PBS 0.05% Tween-20. For detection of IgM^a anti-HEL antibodies, microtiter plates were coated with 10 μg/ml HEL in PBS and blocked with 2 mg/ml BSA in PBS 0.05% Tween-20. […]

[3] = test system: PLCγ; experiment: phosphorylated signaling intermediaries after BCR stimulation: PLCγ; type: cell-based, mouse; conditions: all doses of inhibitor (15, 60, 490 nM), preincubation
Protocol: Cells are then washed 2× in serum free IMDM, and stimulated with 5 μg/ml of F(ab′)2 rabbit anti-mouse anti-IgG (H&L; Invitrogen) or 10 μg/ml anti-CD3-biotin (BD Biosciences)+20 μg/ml streptavidin (Sigma-Aldrich) for 2 minutes. Signaling was stopped by addition of 20% PFA to a final concentration of 2%, incubated at 37° C. for 15 minutes and resuspended in 100% ice-cold MeOH (directly from −80° C.). Cells were then placed on ice for 30 minutes and placed at −20° C. for storage. For analysis, cells were stained with B220-BV786, CD4-BV711, CD8-BV421, and/or pAKT-Alexa Fluor 647 (BD Biosciences), pPLCγ-PE (BD Biosciences), pBTK-BV421 (BD Biosciences) pSyk/Zap70-PE (BD Biosciences) at room temperature for 1 hour. Cells were washed 3 times and samples were acquired in triplicate on an LSR Fortessa X-20 (BD) with analysis using FlowJo software.

[4] = 0.9375 mg/kg, 3.75 mg/kg and 30 mg/kg chow, relative to vehicle control chow

CC[C@H](Nc1ncnc2nc[nH]c12)c1nc2cccc(F)c2c(=O)n1-c1ccccc1 [idelalisib, 5-fluoro-3-phenyl-2-[(1S)-1-(7H-purin-6-ylamino)propyl]-4(3H)-quinazolinone]
disease progression (blood glucose levels and visible signs of disease) ([1]; 0.9375 mg/kg idelalisib chow from pre-diabetic blood glucose readings): significantly delayed
survival ([1]; 0.9375 mg/kg idelalisib chow): extended
number of autoreactive ASCs/spleen ([2]; 0.9375 mg/kg and 3.75 mg/kg chow): significantly reduced
serum autoantibody (IgM^a anti-Ars) ([2]; 0.9375 mg/kg, 3.75 mg/kg and 30 mg/kg chow, day 14, relative to untreated controls): significantly decreased
plasmablast differentiation as measured by CD138 positivity [2, 4]: significantly decreased
proliferation of transferred B cells [2, 4]: significantly decreased
number of autoreactive ASCs/spleen ([2]; 30 mg/kg chow): undetected
total Ars/A1 idiotype+ YFP+ B cells in the spleens (recovery of transferred cells) ([2]; day 14 post transfer, regardless of treatment): no significant difference
phosphorylation of PLCγ [3]: significantly reduced

Source: patent US11701361B2, “p110-delta inhibitors treat and prevent autoimmunity while sparing the ability to mount an immune response to exogenous immunogens” (THE REGENTS OF THE UNIVERSITY OF COLORADO, priority 2018, dated 2023)
